Data published in patent US10144737B2 (ETERNITY BIOSCIENCE INC., priority 2014, dated 2018).

Legend:
Btk = target: T1, Btk (Homo sapiens, UniProt Q06187); assay: Btk kinase assay (ADP-Glo); format: biochemical; conditions: ADP-Glo Btk kinase assay kit; ATP 1.2 μM; 60 minutes at room temperature
T1 construct: purchased Promega (Madison, Wis.)
Description: Btk kinase assay—The Btk kinase assay was performed using a ADP-Glo Btk kinase assay kit purchased from Promega (Madison, Wis.). The assay was conducted according to the protocols provided in the assay kit. In brief, the enzyme reaction was carried out in the kinase reaction buffer containing Btk (2 ng/μl), ATP (1.2 μM), poly GT peptide (0.3 μM), DTT (40 nM), MnCl2 (1.4 mM), and 1 xkinase buffer (included in the kit) in the presence or absence of the tested articles at various concentrations in 384-well plate at room temperature (22±1° C.) for 60 minutes. The final reaction volume for each reaction was 10 μl. Then, 4 μl of ADP-Glo reagent (included in the kit) was added into the reaction and the plate was further incubated for another 40 minutes to terminate the reaction and deplete the remaining ATP. Finally, 10 μl of the kinase detection reagent was added into each reaction to simultaneously convert ADP to ATP and allow the newly synthesized ATP to be measured by a plate-reading luminometer (Victor X5 2030 multilabel reader, PerkinElmer). IC50 value was calculated using appropriate programs in GraphPad Prism by plotting the logarithm of the concentration versus percent inhibition as compared with a vehicle (DMSO) control.

TMD-8 cells = assay: Cell proliferation assay (CellTiter-Glo), TMD-8 cells; format: cell-based; conditions: Homo sapiens, TMD8, 120 h, 5-day treatment, read-out: TMD8 cell growth (GI50 μM)
Description: Cell proliferation assay: TMD-8 and SU-DHL-1 cells were maintained at 37° C. in a humidified atmosphere with 5% CO2 in the recommended medium and serum concentrations. For cell proliferation assay, cells were seeded in 96-well pates at a density of 5,000 to 10,000 cells per well and cultured overnight at 37° C. in recommended medium supplemented with 5-10% FBS. On the next day, the test articles at various concentrations or vehicle control (0.5% DMSO) were added into cell culture. After 5-day treatment, the growth of cells was assayed by the CellTiter-Glo® Luminestceaent Cell Viability Assay (Promega). IC50 values were calculated using GraphPad Prism by plotting the logarithm of the concentration versus percent inhibition of cell growth as compared with the vehicle control.

T1 sequence (Q06187 whole entry): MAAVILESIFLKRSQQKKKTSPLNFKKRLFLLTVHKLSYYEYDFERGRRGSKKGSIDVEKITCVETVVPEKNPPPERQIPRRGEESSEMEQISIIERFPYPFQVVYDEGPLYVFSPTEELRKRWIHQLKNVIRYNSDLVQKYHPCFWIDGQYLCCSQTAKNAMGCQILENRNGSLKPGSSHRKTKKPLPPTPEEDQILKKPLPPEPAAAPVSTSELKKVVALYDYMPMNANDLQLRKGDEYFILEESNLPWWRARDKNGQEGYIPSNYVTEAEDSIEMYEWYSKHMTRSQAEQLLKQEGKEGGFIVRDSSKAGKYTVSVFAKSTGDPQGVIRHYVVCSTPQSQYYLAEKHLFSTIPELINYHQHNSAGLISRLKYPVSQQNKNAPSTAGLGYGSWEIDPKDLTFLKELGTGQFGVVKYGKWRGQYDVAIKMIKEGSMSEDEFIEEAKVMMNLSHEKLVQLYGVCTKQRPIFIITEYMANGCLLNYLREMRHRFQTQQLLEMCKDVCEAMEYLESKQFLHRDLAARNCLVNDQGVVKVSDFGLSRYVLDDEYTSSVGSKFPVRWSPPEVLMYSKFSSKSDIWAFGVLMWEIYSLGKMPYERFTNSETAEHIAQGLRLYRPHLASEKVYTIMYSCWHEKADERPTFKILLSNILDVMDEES

Row | SMILES | IC50 (Btk) [nM] | GI50 (TMD-8 cells) [µM]
1 | C=CC(=O)N1CC[C@@H](Nc2ncnc3[nH]c(C#CCOc4cc(F)ccc4F)cc23)C1 [Example 92, (R)-1-(3-((6-(3-(2,5-difluorophenoxy)prop-1-yn-1-yl)-7H-pyrrolo[2,3-d]pyrimidin-4-yl)amino)pyrrolidin-1-yl)prop-2-en-1-one] | 43 | 0.0038
2 | C=CC(=O)N1CC[C@@H](Nc2ncnc3[nH]c(C#Cc4ccc5ncccc5c4)cc23)C1 [Example 77, (R)-1-(3-((6-(quinolin-6-ylethynyl)-7H-pyrrolo[2,3-d]pyrimidin-4-yl)amino)pyrrolidin-1-yl)prop-2-en-1-one] | 145 | 0.526
3 | O=C(/C=C/CN1CCOCC1)N1CCC(Nc2ncnc3[nH]c(C#CCOc4ccccc4)nc23)C1 (stereo not shown) [Example 11, (E)-4-morpholino-1-(3-((8-(3-phenoxyprop-1-yn-1-yl)-9H-purin-6-yl)amino)pyrrolidin-1-yl)but-2-en-1-one] | 60 | 1.17
4 | C=CC(=O)N1CC[C@@H](Nc2ncnc3[nH]c(C#CCOc4c(F)cccc4F)cc23)C1 [Example 90, (R)-1-(3-((6-(3-(2,6-difluorophenoxy)prop-1-yn-1-yl)-7H-pyrrolo[2,3-d]pyrimidin-4-yl)amino)pyrrolidin-1-yl)prop-2-en-1-one] | 14 | 0.014
5 | C=CC(=O)N1CCC[C@@H](Nc2ncnc3[nH]c(C#Cc4ccccc4)cc23)C1 [Example 96, (R)-1-(3-((6-(phenylethynyl)-7H-pyrrolo[2,3-d]pyrimidin-4-yl)amino)piperidin-1-yl)prop-2-en-1-one] | 14 | 0.066
6 | CN(C)C/C=C/C(=O)N1CC[C@@H](Nc2ncnc3[nH]c(C#CCOc4ccccc4)nc23)C1 [Example 32, (R,E)-4-(dimethylamino)-1-(3-((8-(3-phenoxyprop-1-yn-1-yl)-9H-purin-6-yl)amino)pyrrolidin-1-yl)but-2-en-1-one] | 7.5 | 0.004
7 | CN(C)C/C=C/C(=O)N1CCC(N(C)c2ncnc3[nH]c(C#CCOc4ccccc4)cc23)C1 (stereo not shown) [Example 39, (E)-4-(dimethylamino)-1-(3-(methyl(6-(3-phenoxyprop-1-yn-1-yl)-7H-pyrrolo[2,3-d]pyrimidin-4-yl)amino)pyrrolidin-1-yl)but-2-en-1-one] | 192 | 0.299
8 | C=CC(=O)N1CC[C@@H](Nc2ncnc3[nH]c(C#Cc4ccccc4F)cc23)C1 [Example 51, (R)-1-(3-((6-((2-fluorophenyl)ethynyl)-7H-pyrrolo[2,3-d]pyrimidin-4-yl)amino)pyrrolidin-1-yl)prop-2-en-1-one] | 18 | 0.016
9 | C=CC(=O)N1CC[C@@H](Nc2ncnc3[nH]c(C#Cc4cccc(OC(F)(F)F)c4)cc23)C1 [Example 65, (R)-1-(3-((6-((3-trifluoromethoxyphenyl)ethynyl)-7H-pyrrolo[2,3-d]pyrimidin-4-yl)amino)pyrrolidin-1-yl)prop-2-en-1-one] | 173 | 0.0027
10 | C=CC(=O)N1CC[C@@H](Nc2ncnc3[nH]c(C#Cc4cccc(C)c4)cc23)C1 [Example 69, (R)-1-(3-((6-((3-methylphenyl)ethynyl)-7H-pyrrolo[2,3-d]pyrimidin-4-yl)amino)pyrrolidin-1-yl)prop-2-en-1-one] | 182 | 0.007
11 | C=CC(=O)N1CC[C@@H](Nc2ncnc3[nH]c(C#CCOC4CCCCO4)cc23)C1 (stereo partly drawn) [Example 84, 1-((3R)-3-((6-(3-((tetrahydro-2H-pyran-2-yl)oxy)prop-1-yn-1-yl)-7H-pyrrolo[2,3-d]pyrimidin-4-yl)amino)pyrrolidin-1-yl)prop-2-en-1-one] | 136 | 1.09
12 | C=CC(=O)N1CC[C@@H](Nc2ncnc3[nH]c(C#Cc4ccc(Cl)c(F)c4)cc23)C1 [Example 70, (R)-1-(3-((6-((3-fluoro-4-chlorophenyl)ethynyl)-7H-pyrrolo[2,3-d]pyrimidin-4-yl)amino)pyrrolidin-1-yl)prop-2-en-1-one] | 7.2 | 0.0013

The next compounds have a lower IC50 (Btk) than those just listed; values first:

Row | IC50 (Btk) [nM] | SMILES | GI50 (TMD-8 cells) [µM]
13 | 0.02 | CN(C)C/C=C/C(=O)N1CCC(Nc2ncnc3[nH]c(C#CCOc4ccc(F)cc4)nc23)C1 (stereo not shown) [Example 22, (E)-1-(3-((8-(3-(4-fluorophenoxy)prop-1-yn-1-yl)-9H-purin-6-yl)amino)pyrrolidin-1-yl)-4-(dimethylamino)but-2-en-1-one] | 1
14 | 2.6 | C=CC(=O)N1CCC(Nc2ncnc3[nH]c(C#CCOc4ccccc4)nc23)C1 (stereo not shown) [Example 9, 1-(3-((8-(3-phenoxyprop-1-yn-1-yl)-9H-purin-6-yl)amino)pyrrolidin-1-yl)prop-2-en-1-one] | 0.012
15 | < 0.03 | CN(C)C/C=C/C(=O)N1CC[C@@H](Nc2ncnc3[nH]c(C#CCOc4ccccc4F)cc23)C1 [Example 49, (R,E)-1-(3-((6-(3-(2-fluorophenoxy)prop-1-yn-1-yl)-7H-pyrrolo[2,3-d]pyrimidin-4-yl)amino)pyrrolidin-1-yl)-4-(dimethylamino)but-2-en-1-one] | 0.017
16 | 6 | C=CC(=O)N1CC[C@@H](Nc2ncnc3[nH]c(C#CCOc4c(F)cccc4F)nc23)C1 [Example 98, (R)-1-(3-((8-(3-(2,6-difluorophenoxy)prop-1-yn-1-yl)-9H-purin-6-yl)amino)pyrrolidin-1-yl)prop-2-en-1-one] | 0.005
17 | 0.1 | CN(C)C/C=C/C(=O)N1CCC(Nc2ncnc3[nH]c(C#CCOc4ccccc4)nc23)C1 (stereo not shown) [Example 10, (E)-4-(dimethylamino)-1-(3-((8-(3-phenoxyprop-1-yn-1-yl)-9H-purin-6-yl)amino)pyrrolidin-1-yl)but-2-en-1-one] | 0.171
18 | 1 | C=CC(=O)N1CC[C@@H](Nc2ncnc3[nH]c(C#Cc4ccsc4)cc23)C1 [Example 76, (R)-1-(3-((6-(thiophen-3-ylethynyl)-7H-pyrrolo[2,3-d]pyrimidin-4-yl)amino)pyrrolidin-1-yl)prop-2-en-1-one] | 0.0032
19 | 0.4 | COc1ccccc1OCC#Cc1nc2c(NC3CCN(C(=O)/C=C/CN(C)C)C3)ncnc2[nH]1 (stereo not shown) [Example 28, (E)-1-(3-((8-(3-(2-methoxyphenoxy)prop-1-yn-1-yl)-9H-purin-6-yl)amino)pyrrolidin-1-yl)-4-(dimethylamino)but-2-en-1-one] | 0.082
20 | 0.3 | C=CC(=O)Nc1cccc(Nc2ncnc3[nH]c(C#Cc4ccccc4)cc23)c1 [Example 103, N-(3-((6-(phenylethynyl)-7H-pyrrolo[2,3-d]pyrimidin-4-yl)amino)phenyl)acrylamide] | 0.079
21 | 0.3 | C=CC(=O)N1CC[C@@H](Nc2ncnc3[nH]c(C#CCOc4ccccc4)cc23)C1 [Example 40, (R)-1-(3-((6-(3-phenoxyprop-1-yn-1-yl)-7H-pyrrolo[2,3-d]pyrimidin-4-yl)amino)pyrrolidin-1-yl)prop-2-en-1-one] | 0.004
22 | 4 | CN(C)C/C=C/C(=O)N1CCC(Nc2ncnc3[nH]c(C#CCOc4ccc(Cl)cc4)nc23)C1 (stereo not shown) [Example 21, (E)-1-(3-((8-(3-(4-chlorophenoxy)prop-1-yn-1-yl)-9H-purin-6-yl)amino)pyrrolidin-1-yl)-4-(dimethylamino)but-2-en-1-one] | 1.8
23 | 0.04 | COc1ccccc1OCC#Cc1cc2c(N[C@@H]3CCN(C(=O)/C=C/CN(C)C)C3)ncnc2[nH]1 [Example 46, (R,E)-1-(3-((6-(3-(2-methoxyphenoxy)prop-1-yn-1-yl)-7H-pyrrolo[2,3-d]pyrimidin-4-yl)amino)pyrrolidin-1-yl)-4-(dimethylamino)but-2-en-1-one] | 0.017
24 | 3.3 | CN(C)C/C=C/C(=O)N1CCN(c2ncnc3[nH]c(C#CCOc4ccccc4)cc23)CC1 [Example 2, (E)-4-(dimethylamino)-1-(4-(6-(3-phenoxyprop-1-yn-1-yl)-7H-pyrrolo[2,3-d]pyrimidin-4-yl)piperazin-1-yl)but-2-en-1-one] | 0.034
25 | 2.3 | CNC/C=C/C(=O)N1CCN(c2ncnc3[nH]c(C#CCOc4ccccc4)cc23)CC1 [Example 3, (E)-4-(methylamino)-1-(4-(6-(3-phenoxyprop-1-yn-1-yl)-7H-pyrrolo[2,3-d]pyrimidin-4-yl)piperazin-1-yl)but-2-en-1-one] | 2.9
26 | 1.1 | C=CC(=O)N1CC[C@@H](Nc2ncnc3[nH]c(C#CCOc4ccccc4OC)cc23)C1 [Example 45, (R)-1-(3-((6-(3-(2-methoxyphenoxy)prop-1-yn-1-yl)-7H-pyrrolo[2,3-d]pyrimidin-4-yl)amino)pyrrolidin-1-yl)prop-2-en-1-one] | 0.0014
